As a reminder, the MIC is the least concentration at which growth counts as inhibited.

Values after ≈ are worked out from the molar mass of the structure shown.

This assay has as its system SAUR 9218. Description: MIC Test Method, standard agar dilution. Format: cell-based. Particulars: agar dilution, Mueller Hinton agar, incubated overnight at 35° C.; lowest concentration that inhibits visible growth; read-out: SAUR 9218 MIC. How it is done: The in vitro MiCs of test compounds were determined by a standard agar dilution method. A stock drug solution of each analog was prepared in the preferred solvent, usually DMSO:H2O (1:3). Serial 2-fold dilutions of each sample are made using 1.0 ml aliquots of sterile distil]ed water. To each 1.0 ml aliquot of drug was added 9 ml of molten Mueller Hinton agar medium. The drug-supplemented agar was mixed, poured into 15×100 mm petri dishes, and allowed to solidify and dry prior to inoculation.
Vials of each of the test organisms are maintained frozen in the vapor phase of a liquid nitrogen freezer. Test cultures are grown overnight at 35° C. on the medium appropriate for the organism. Colonies are harvested with a sterile swab, and cell suspensions are prepared in Trypticase Soy broth (TSB) to equal the turbidity of a 0.5 McFamland standard. A 1:20 dilution of each suspension was made in TSB. The plates containing the drug supplemented agar are inoculated with a 0.001 ml drop of the cell suspension using a Steers replicator, yielding approximately 10^4 to 10^5 cells per spot. The plates are incubated overnight at 35° C.
Following incubation the Minimum Inhibitory Concentration (MIC μg/ml), the lowest concentration of drug that inhibits visible growth of the organism, was read and recorded.
As for `N#Cc1ccc(NC(=O)c2cc(CCCc3ccccc3)on2)c(C(=O)O)c1`, the MIC was found to be 0.125 µg/mL (≈ 0.333 µM).

In the case of `N#Cc1ccc(NC(=O)c2cc(SCc3ccccc3)on2)c(C(=O)O)c1`, the MIC is 0.125 µg/mL (≈ 0.329 µM).

Regarding `N#Cc1ccc(NC(=O)c2cc(-c3ccccc3OCCCOc3ccccc3)on2)c(C(=O)O)c1`, the MIC came to 0.5 µg/mL (≈ 1.03 µM).

Regarding `COc1ccc(CC(=O)Nc2cccc3cc(C(=O)Nc4ccc(C#N)cc4C(=O)O)[nH]c23)cc1`, the MIC was 0.25 µg/mL (≈ 0.534 µM).

Take `Cn1c(C(=O)Nc2ccc(C#N)cc2C(=O)O)cc2cccc(C(OOSc3cnc(Cl)c(Br)c3)S(=O)(=O)c3cnc(Cl)c(Br)c3)c21` (stereo not drawn): the MIC turned out to be 0.03 µg/mL (≈ 0.0356 µM).

In the case of `Cn1c(C(=O)Nc2ccc(C#N)cc2C(=O)O)cc2cccc(OCc3ccccc3)c21`, the minimal inhibitory concentration (MIC) stood at 0.125 µg/mL (≈ 0.294 µM).

On to `N#Cc1ccc(NC(=O)c2cc3cccc(S(=O)(=O)c4ccccc4)c3[nH]2)c(C(=O)O)c1`, for which the MIC was determined as 0.125 µg/mL (≈ 0.281 µM).

Take `N#Cc1ccc(NC(=O)c2noc3ccc(-c4ccccc4CO)cc23)c(C(=O)O)c1`: the MIC is 0.5 µg/mL (≈ 1.21 µM).

Take `CCOCCOCCOc1ccccc1-c1cc(C(=O)Nc2ccc(C#N)cc2C(=O)O)no1`: the MIC was determined as 0.5 µg/mL (≈ 1.07 µM).

With `Cn1c(C(=O)Nc2ccc(C#N)cc2C(=O)O)cc2cccc(OCC3CC3)c21`, the minimum inhibitory concentration (MIC) was determined as 0.125 µg/mL (≈ 0.321 µM).

As to `CC(C)Oc1ccccc1-c1cc(C(=O)Nc2ccc(C#N)cc2C(=O)O)no1`, the MIC was 0.125 µg/mL (≈ 0.319 µM).

For `COCC(C)Oc1cccc2cc(C(=O)Nc3ccc(C#N)cc3C(=O)O)n(C)c12` (stereo not drawn), the MIC was found to be 0.125 µg/mL (≈ 0.307 µM).

On to `O=C(Nc1ccc(Br)cc1C(=O)O)c1ccc(Br)s1`, for which the MIC worked out at 16 µg/mL (≈ 39.5 µM).

In the case of `O=C(O)c1cc(Br)ccc1NC(=O)c1noc2ccc(Br)cc12`, the MIC came out at 1 µg/mL (≈ 2.27 µM).

In the case of `Cn1c(C(=O)Nc2ccc(C#N)cc2C(=O)O)cc2cccc(OCC(O)CCl)c21` (stereo not drawn), the MIC came to 0.25 µg/mL (≈ 0.584 µM).

On to `N#Cc1ccc(NC(=O)c2cc3cccc(NC(=O)COc4ccccc4)c3[nH]2)c(C(=O)O)c1`, for which the MIC stood at 0.5 µg/mL (≈ 1.1 µM).

As for `Cc1noc(C)c1S(=O)(=O)Nc1cccc2cc(C(=O)Nc3ccc(C#N)cc3C(=O)O)n(C)c12`, the MIC turned out to be 0.25 µg/mL (≈ 0.507 µM).

With `O=C(Nc1ccc(Br)cc1C(=O)O)c1ccc2c(c1)OCO2`, the MIC came to 16 µg/mL (≈ 43.9 µM).

Take `Cc1sc(C(=O)Nc2ccc(Br)cc2C(=O)O)cc1S(=O)(=O)NCCc1ccc(N)cc1`: the MIC came out at 32 µg/mL (≈ 59.4 µM).

Regarding `COCOCC(CCc1cc(C(=O)Nc2ccc(Br)cc2C(=O)O)no1)OCOC` (stereo not drawn), the MIC stood at 8 µg/mL (≈ 16.4 µM).

As for `N#Cc1ccc(NC(=O)c2noc3cc(OS(=O)(=O)Cc4ccccc4)ccc23)c(C(=O)O)c1`, the MIC is 0.25 µg/mL (≈ 0.524 µM).

Consider `N#Cc1ccc(NC(=O)c2cnccn2)c(C(=O)O)c1`, for which the MIC was determined as 128 µg/mL (≈ 477 µM).

Take `COCC(OC)C(Cc1cnc(C(=O)Nc2ccc(Br)cc2C(=O)O)cn1)OC` (stereo not drawn): the minimal inhibitory concentration (MIC) is greater than 128 µg/mL.

Turning to `O=C(O)c1cc(Cl)ccc1NC(=O)c1cc2ccccc2n1CC1CCCCC1`, the MIC stood at 0.5 µg/mL (≈ 1.22 µM).

Regarding `N#Cc1ccc(NC(=O)c2cc3cccc(NC(=O)C4CCCN4)c3[nH]2)c(C(=O)O)c1` (stereo not drawn), the MIC was greater than 128 µg/mL.

For `O=C(O)c1cc(Br)ccc1NC(=O)c1noc2ccc(S(=O)(=O)NCc3ccccc3)cc12`, the MIC was 0.06 µg/mL (≈ 0.113 µM).

For `O=C(Nc1ccc(Br)cc1C(=O)O)c1coc(CC[C@H](O)CO)n1`, the MIC is greater than 128 µg/mL.

With `O=C(O)c1cc(Br)ccc1NC(=O)c1noc2ccc(S(=O)(=O)N3CCCC3)cc12`, the MIC was found to be 0.25 µg/mL (≈ 0.506 µM).

As for `N#Cc1ccc(NC(=O)c2cnc(-c3ccccc3)cn2)c(C(=O)O)c1`, the MIC was found to be 64 µg/mL (≈ 186 µM).

Turning to `N#Cc1ccc(NC(=O)c2cc(OCc3ccccc3)ccn2)c(C(=O)O)c1`, the MIC was found to be 0.5 µg/mL (≈ 1.34 µM).

In the case of `CC(C)[Si](c1cc(C(=O)Nc2ccc(C#N)cc2C(=O)O)no1)(C(C)C)C(C)C`, the MIC is 0.5 µg/mL (≈ 1.21 µM).

`O=C(Nc1ccc(-c2ccccc2C(F)(F)F)cc1C(=O)O)c1cc(-c2ccccc2F)on1`: the MIC turned out to be 8 µg/mL (≈ 17 µM).

In the case of `C#CCCOCC(O)COc1cccc2cc(C(=O)Nc3ccc(C#N)cc3C(=O)O)n(C)c12` (stereo not drawn), the MIC worked out at 0.5 µg/mL (≈ 1.08 µM).

As for `Cn1c(C(=O)Nc2ccc(C#N)cc2C(=O)O)cc2cccc(-c3ccc(S(C)(=O)=O)cc3)c21`, the MIC turned out to be 8 µg/mL (≈ 16.9 µM).

As to `CCC(=O)COc1ccccc1-c1cc(C(=O)Nc2ccc(O)cc2C(=O)O)no1`, the MIC came out at 1 µg/mL (≈ 2.44 µM).

`N#Cc1ccc(NC(=O)c2cc3cccc(NC(=O)C4CCCCC4)c3[nH]2)c(C(=O)O)c1`: the MIC is 2 µg/mL (≈ 4.65 µM).

For `N#Cc1ccc(NC(=O)c2cc(-c3ccccc3OC3CCC3)on2)c(C(=O)O)c1`, the MIC is 0.125 µg/mL (≈ 0.31 µM).

Consider `N#Cc1ccc(NC(=O)c2noc3cc(NS(=O)(=O)c4ccccc4)ccc23)c(C(=O)O)c1`, for which the MIC stood at 1 µg/mL (≈ 2.16 µM).

With `CCCS(=O)(=O)Nc1cccc2cc(C(=O)Nc3ccc(C#N)cc3C(=O)O)n(C)c12`, the MIC is 0.5 µg/mL (≈ 1.14 µM).

Take `O=C(Nc1ccc(Br)cc1C(=O)O)c1cc(-c2ccccc2C(F)(F)F)on1`: the MIC came to 0.5 µg/mL (≈ 1.1 µM).

Consider `COCCn1c(C(=O)Nc2ccc(Br)cc2C(=O)O)cc2ccccc21`, for which the MIC was found to be 16 µg/mL (≈ 38.3 µM).

As to `N#Cc1ccc(NC(=O)c2cc3cccc(NC(=O)C4CCC4)c3[nH]2)c(C(=O)O)c1`, the MIC came to 0.5 µg/mL (≈ 1.24 µM).

Take `CC(C)(C)c1ccc(-c2cncc(C(=O)Nc3ccc(C#N)cc3C(=O)O)c2)cc1`: the MIC amounted to 32 µg/mL (≈ 80.1 µM).

Consider `CCCCC(=O)Nc1cccc2cc(C(=O)Nc3ccc(C#N)cc3C(=O)O)[nH]c12`, for which the MIC turned out to be 0.5 µg/mL (≈ 1.24 µM).

`CC(=O)Nc1cccc(-c2ccc3c(C(=O)Nc4ccc(C#N)cc4C(=O)O)noc3c2)c1`: the MIC came out at 0.015 µg/mL (≈ 0.0341 µM).

Turning to `N#Cc1ccc(NC(=O)c2noc3cc(O)ccc23)c(C(=O)O)c1`, the MIC amounted to 1 µg/mL (≈ 3.09 µM).

In the case of `Cc1sc(C(=O)Nc2ccc(C#N)cc2C(=O)O)cc1S(=O)(=O)N1CCN(c2ccc([N+](=O)[O-])cc2)CC1`, the MIC is 4 µg/mL (≈ 7.2 µM).

On to `CC(C)(C)N1C(=O)c2ccc(C(=O)Nc3ccc(Br)cc3C(=O)O)cc2C1=O`, for which the MIC is 4 µg/mL (≈ 8.98 µM).

Regarding `N#Cc1ccc(NC(=O)c2cc(CN(CCO)CCO)on2)c(C(=O)O)c1`, the MIC is 8 µg/mL (≈ 21.4 µM).

On to `Cn1c(C(=O)Nc2ccc(C#N)cc2C(=O)O)cc2cccc(OCc3ccco3)c21`, for which the MIC stood at 0.125 µg/mL (≈ 0.301 µM).

Turning to `Cn1c(C(=O)Nc2ccc(C#N)cc2C(=O)O)cc2ccc(NC(=O)c3ccc(OC(F)(F)F)cc3)cc21`, the MIC came out at 2 µg/mL (≈ 3.83 µM).

In the case of `O=C(Nc1ccc(Br)cc1C(=O)O)c1csc(S(=O)(=O)N2CCN(c3ccc(Cl)cc3)CC2)c1`, the MIC was 32 µg/mL (≈ 54.7 µM).

Turning to `Cc1noc(C)c1C#Cc1cncc(C(=O)Nc2ccc(C#N)cc2C(=O)O)c1`, the MIC amounted to 16 µg/mL (≈ 41.4 µM).

In the case of `CN(c1ccc(Cl)cc1)S(=O)(=O)c1csc(C(=O)Nc2ccc(Br)cc2C(=O)O)c1`, the MIC was 8 µg/mL (≈ 15.1 µM).

Regarding `Cn1c(C(=O)Nc2ccc(C#N)cc2C(=O)O)cc2ccc(N(S(=O)(=O)c3ccccc3)S(=O)(=O)c3ccccc3)cc21`, the MIC worked out at 0.5 µg/mL (≈ 0.813 µM).

With `Cc1sc(C(=O)Nc2ccc(C#N)cc2C(=O)O)cc1S(=O)(=O)N1CCCC2CCCCC21` (stereo not drawn), the MIC came out at 32 µg/mL (≈ 65.6 µM).

Consider `Cc1ccsc1C(=O)Nc1ccc(Br)cc1C(=O)O`, for which the MIC is greater than 128 µg/mL.

Take `N#Cc1ccc(NC(=O)c2ncc(-c3ccccc3C(F)(F)F)o2)c(C(=O)O)c1`: the MIC stood at 1 µg/mL (≈ 2.49 µM).

Consider `CC(C)(C)c1cc(C(=O)Nc2ccc(C#N)cc2C(=O)O)no1`, for which the MIC is 1 µg/mL (≈ 3.19 µM).

As for `O=C(O)c1cc(Br)ccc1NC(=O)c1noc2ccccc12`, the MIC stood at 0.25 µg/mL (≈ 0.692 µM).

As to `O=C(Nc1ccc(Br)cc1C(=O)O)c1cc(-c2ccc(C(F)(F)F)cc2)on1`, the MIC was 1 µg/mL (≈ 2.2 µM).

Turning to `N#Cc1ccc(NC(=O)c2ccc(SCCCCN)nc2)c(C(=O)O)c1.O=C(O)C(F)(F)F`, the MIC was determined as 2 µg/mL.

As to `COCCOCCCSc1cnc(C(=O)Nc2ccc(Br)cc2C(=O)O)cn1`, the minimal inhibitory concentration (MIC) was 2 µg/mL (≈ 4.25 µM).

Values taken from patent US20040110802A1, “Antibacterial benzoic acid derivatives” (priority 2002, published 2004).
